In assay [1] the test system is phosphorylation of PKC and AKT. Nature of the assay: immune blotting of phosphorylation after simeprevir treatment, U251. Type of assay: cell-based. As to conditions: 24-72 hours of drug treatment, FIG. 5 right panel. Here is the method:
Simeprevir used as a hepatitis anti-C virus drug was treated and phosphorylation was verified through immune blotting after 24-72 hours of drug treatment. The result was illustrated in FIG. 5 (right panel).

Assay [2] has as its system human breast cancer cell lines BT-474. Nature of the assay: tumor xenograft model in vivo with radiation irradiation. More on the design: species or system BALB/c athymic nude mouse. As to conditions: simeprevir 10 mg/Kg to peritoneal cavity three times a week for two weeks + radiation 9 Gy (3 Gy three times a week); compared with other groups; FIG. 9. As for the experimental part:
In order to form a tumor xenograft model in vivo, 5×10^6 human breast cancer cell lines BT-474 were injected to a hind leg of a BALB/c athymic nude mouse. After 3 weeks, it was verified that the tumor was uniformly grown, and the mouse was randomly assigned to four groups of a control group, a simeprevir group, a radiation irradiation group, and a simeprevir+radiation irradiation group. The simeprevir was administrated to peritoneal cavity with a concentration of 10 mg/Kg three times a week for two weeks, and the radiation was irradiated with 9 Gy three times a week by 3 Gy by electron beam of 6 MeV while covering 1 cm bolus. After the entire treatment was finished, the size of the tumor was measured at an interval of about 1 week, and the result was illustrated in FIG. 9.

A further assay has as its system BT-474 cell line. Nature of the assay: colony formation assay after antiviral drug treatment and irradiation, BT-474. Format: cell-based, human. As to conditions: drug concentrations determined as 100 nM, 200 nM and 30 μM, FIGS. 5 and 6. Here is the method:
(§1) First, after 48 hours of siRNA transduction of Example 2, the cells were collected and 500 with 0 Gy, 1,000 with 2 Gy, 2,000 with 4 Gy, and 4,000 with 6 Gy cells were cultured on a plate according to a radiation dose. After it was checked that the cells were stably attached to a culture dish, radiation was treated with a radiation dose rate of 2.46 Gy per minute by 4 MV X-ray by using a linear accelerator, and the cells were cultured for about 14 days to 23 days until cell colonies were checked with the naked eye. The formed colonies were fixed with 100% methanol and then dyed with 0.5% crystal violet, and surviving fraction was calculated by counting the number of colonies including at least 50 cells. In the surviving fraction, an average of the number of cell colonies in three wells for each radiation dose was shown according to a linear-quadratic model using Kaleidagraph version 3.51 (Synergy Software, Reading, Pa.), and the result was illustrated in FIG. 2.
(§2) As the hepatitis anti-C virus drug, simeprevir (Olysio) (Janssen Pharmaceutica), sofosbuvir (sovaldi) (Gilead), and daclatasvir (Daklinza) (Bristol-Myers Squibb) were used. […]
(§3) After the determined amount of drug was treated in the brain tumor and breast cancer cell lines, the colony formation assay was performed by the same method as Experimental Example 1, and the result was illustrated in FIGS. 5 to 7.

The subject of another assay is U251 cell line. Nature of the assay: colony formation assay after antiviral drug treatment and irradiation, U251. Format: cell-based. As to conditions: drug concentrations determined as 100 nM, 200 nM and 30 μM, FIGS. 5 to 7. Here is the method:
as §1, §2, §3

Each structure is given as a SMILES string.

As for `COc1ccc2c(O[C@@H]3C[C@H]4C(=O)N[C@]5(C(=O)NS(=O)(=O)C6CC6)C[C@H]5/C=C\CCCCN(C)C(=O)[C@@H]4C3)cc(-c3nc(C(C)C)cs3)nc2c1C` [simeprevir], the “phosphorylation of AKT” value in assay [1] is reported as “reduction”. The “phosphorylation of PKC” value in assay [1] is listed as “reduction”. In addition, the “growth of the tumor” value in assay [2] was “significantly inhibited”. The “sensitivity to radiation (colony formation assay)” value in the assay with BT-474 cell line and in the assay on U251 cell line was “enhanced” throughout.
For `CC(C)OC(=O)[C@H](C)N[P@](=O)(OC[C@H]1O[C@@H](n2ccc(=O)[nH]c2=O)[C@](C)(F)[C@@H]1O)Oc1ccccc1` [sofosbuvir], the “sensitivity to radiation (colony formation assay)” value in the assay on BT-474 cell line and in the assay on U251 cell line was “enhanced” throughout.

For the origin of these results see patent US9828605B2, “Composition for enhancing radiation sensitivity comprising PI4K isozyme inhibitor” (Seoul National University R&DB Foundation, priority 2015, dated 2017).
